Results on 5 compounds are retold here after ChEMBL document CHEMBL1687767, “New antiseptic peptides to protect against endotoxin-mediated shock” (Antimicrob Agents Chemother, 2010).

Converted amounts (≈) assume the structure as drawn. The source made the active and inactive calls. No cut-off for these calls is given here. Residues, ends and D or L forms follow the SMILES beside them.

In data set [1] the test system is Mus musculus. Description: Antisepsis activity in Pseudomonas aeruginosa LPS-induced C57BL/6 mouse lethal endotoxin shock model assessed as mouse survival at 12.5 ug, ip administered immediately after LPS challenge. The data set is classed as functional, organism-based.
In data set [2] the test system is Mus musculus. Kind of data set: Antisepsis activity in Salmonella enterica serovar Minnesota R60 LPS-induced C57BL/6 mouse lethal endotoxin shock model assessed as mouse survival at 12.5 ug, ip administered immediately after LPS challenge. The data set is classed as functional, organism-based.
The species named for data set [3] is Homo sapiens. Kind of data set: Antiinflammatory activity in human MNC assessed as inhibition of LPS-induced TNFalpha production at compound: LPS ratio of <10:1 weight percent by ELISA. In kind it is functional.
The species entered for data set [4] is Homo sapiens. Kind of data set: Antiinflammatory activity in human MNC assessed as inhibition of LPS-induced TNFalpha production at compound: LPS ratio of 10:1 weight percent by ELISA. In kind it is functional.
The species entered for data set [5] is Homo sapiens. Kind of data set: Antiinflammatory activity in human MNC assessed as inhibition of LPS-induced TNFalpha production at compound: LPS ratio of 100:1 weight percent by ELISA. The data set is classed as functional.
The test system of data set [6] is Jurkat. Kind of data set: Cytotoxicity against human Jurkat cells assessed as effect on respiration rate at 10 ug/ml by Chip-based Bionas system. In kind it is cell-based.
The subject of data set [7] is Jurkat. Kind of data set: Cytotoxicity against human Jurkat cells assessed as effect on respiration rate at 100 ug/ml by Chip-based Bionas system. In kind it is cell-based.
In data set [8] the test system is HepG2. Description: Cytotoxicity against human HepG2 cells assessed as effect on respiration rate at 10 ug/ml by Chip-based Bionas system. The data set is classed as cell-based.
Data set [9] concerns HepG2. Description: Cytotoxicity against human HepG2 cells assessed as effect on respiration rate at 100 ug/ml by Chip-based Bionas system. In kind it is cell-based.
A short description of data set [10]: Cytotoxicity against human LS 174T cells assessed as effect on respiration rate at 10 ug/ml by Chip-based Bionas system. The data set is classed as cell-based. The conditions noted are these: ls174t.
Data set [11] is described as follows: Cytotoxicity against human LS 174T cells assessed as effect on respiration rate at 100 ug/ml by Chip-based Bionas system. In kind it is cell-based. The conditions noted are these: ls174t.
Data set [12] concerns PBMC. Kind of data set: Cytotoxicity against human PBMC cells assessed as effect on respiration rate at 10 ug/ml by Chip-based Bionas system. In kind it is cell-based.
Data set [13] deals with PBMC. Kind of data set: Cytotoxicity against human PBMC cells assessed as effect on respiration rate at 100 ug/ml by Chip-based Bionas system. In kind it is cell-based.
The test system of data set [14] is HeLa. Description: Cytotoxicity against human HeLa cells at 10 ug/ml by MTT assay. The data set is classed as cell-based.
The subject of data set [15] is HeLa. Kind of data set: Cytotoxicity against human HeLa cells at 100 ug/ml by MTT assay. In kind it is cell-based.
Data set [16] has as its system HaCaT. Description: Cytotoxicity against human HaCaT cells at 10 ug/ml by MTT assay. The data set is classed as cell-based.
Data set [17] has as its system HaCaT. Description: Cytotoxicity against human HaCaT cells at 100 ug/ml by MTT assay. In kind it is cell-based.
The nature of data set [18]: Toxicity in human RBC assessed as hemolysis upto 25 ug/ml. The following applies: erythrocyte. In kind it is cell-based.
In data set [19] the test system is Mus musculus. Description: Antisepsis activity in Salmonella enterica serovar Minnesota R60 LPS-induced C57BL/6 mouse lethal endotoxin shock model assessed as mouse survival at 2.5 ug, ip administered immediately after LPS challenge measured 48 hrs post LPS challenge. The data set is classed as functional, organism-based.
The subject of data set [20] is Lipopolysaccharide (LPS). Description: Binding affinity to Salmonella enterica serovar Minnesota R60 LPS at [compound]/[LPS] ratio of 0.3 by isothermal titration calorimetry. The conditions noted are these: Salmonella enterica subsp. enterica serovar Minnesota.
In data set [21] the test system is Bordetella bronchiseptica. Description: Antimicrobial activity against Bordetella bronchiseptica CUN11844-99 by broth microdilution method. The data set is classed as functional.
Data set [22] relates to Pseudomonas aeruginosa. Kind of data set: Antimicrobial activity against Pseudomonas aeruginosa CUN 4158-02 by broth microdilution method. The data set is classed as functional.
For data set [23], the system named is Pseudomonas aeruginosa. Description: Antimicrobial activity against Pseudomonas aeruginosa ATCC 27853 by broth microdilution method. In kind it is functional.
Data set [24] deals with Escherichia coli. Description: Antimicrobial activity against Escherichia coli ATCC 25922 by broth microdilution method. The data set is classed as functional.
The test system of data set [25] is Staphylococcus aureus. Kind of data set: Antimicrobial activity against Staphylococcus aureus ATCC 25923 by broth microdilution method. In kind it is functional.
Data set [26] relates to Staphylococcus aureus. Kind of data set: Antimicrobial activity against methicillin-resistant Staphylococcus aureus ATCC 43300 by broth microdilution method. The data set is classed as functional.
In data set [27] the test system is Staphylococcus aureus. Kind of data set: Antimicrobial activity against methicillin-resistant Staphylococcus aureus CUN 3792-99 by broth microdilution method. In kind it is functional.
The test system of data set [28] is Stenotrophomonas maltophilia. Kind of data set: Antimicrobial activity against […] Stenotrophomonas maltophilia CUN 3998-00 by broth microdilution method. The data set is classed as functional.
In data set [29] the test system is Acinetobacter baumannii. Description: Antimicrobial activity against […] Acinetobacter baumannii ATCC 19606 by broth microdilution method. In kind it is functional.

POLYMYXIN B: the result in [1] and in data set [2] was Active. Moreover, the inhibition entry in data set [3] and in data set [4] was “Active” each time.

As to `N=C(N)NCCC[C@H](NC(=O)[C@H](Cc1ccc(O)cc1)NC(=O)[C@H](CCCCN)NC(=O)[C@H](CCCCN)NC(=O)[C@H](CS)NC(=O)CN)C(=O)N[C@@H](CCCNC(=N)N)C(=O)N[C@@H](Cc1ccccc1)C(=O)N[C@@H](CCCNC(=N)N)C(=O)N[C@@H](Cc1c[nH]c2ccccc12)C(=O)N[C@@H](CCCCN)C(=O)N[C@@H](Cc1ccccc1)C(=O)N[C@@H](CCCCN)C(=O)NCC(=O)N[C@@H](CCCCN)C(=O)N[C@@H](Cc1ccccc1)C(=O)N[C@@H](Cc1c[nH]c2ccccc12)C(=O)N[C@@H](Cc1ccccc1)C(=O)N[C@@H](Cc1c[nH]c2ccccc12)C(=O)NCC(=O)O`, the inhibition entry in data set [5] was “Active”. Besides, the outcome in data set [2], in [19] and in [20] was Active. Moreover, the Activity result in data set [6] was “Non-toxic”; in data set [7] it was “Toxic”; in data set [8], “Non-toxic”; in [9] it was “Toxic”; in data set [10], “Non-toxic”; in data set [11] it was “Toxic”. Further, the Activity entry was “Non-toxic” in data set [12]; “Toxic” in [13]; “Non-toxic” in [14]; “Toxic” in [15]; “Non-toxic” in [16]; “Toxic” in data set [17]. Besides, the Activity entry in data set [18] was “Non-toxic”.

`N=C(N)NCCC[C@H](NC(=O)CNC(=O)[C@H](CCCCN)NC(=O)[C@H](Cc1ccccc1)NC(=O)[C@H](CCCCN)NC(=O)[C@H](Cc1c[nH]c2ccccc12)NC(=O)[C@H](CCCNC(=N)N)NC(=O)[C@H](Cc1ccccc1)NC(=O)[C@H](CCCCN)NC(=O)[C@H](CCCCN)NC(=O)[C@H](Cc1ccc(O)cc1)NC(=O)[C@H](CCCNC(=N)N)NC(=O)[C@H](CCCNC(=N)N)NC(=O)CN)C(=O)N[C@@H](Cc1c[nH]c2ccccc12)C(=O)N[C@@H](Cc1ccccc1)C(=O)N[C@@H](Cc1c[nH]c2ccccc12)C(=O)N[C@@H](Cc1ccccc1)C(=O)NCC(=O)O` (H-GRRYKKFRWKFKGRWFWFG-OH): the minimal inhibitory concentration (MIC) in data set [21] was 128 µg/mL (≈ 48.5 µM); in data set [22] it was 32 µg/mL (≈ 12.1 µM); in [23], 16 µg/mL (≈ 6.07 µM); in data set [24] it was 16 µg/mL (≈ 6.07 µM); in data set [25], 8 µg/mL (≈ 3.03 µM); in [26] it was 8 µg/mL (≈ 3.03 µM). Moreover, the minimal inhibitory concentration (MIC) amounted to 8 µg/mL (≈ 3.03 µM) in [27], 32 µg/mL (≈ 12.1 µM) in data set [28] and 16 µg/mL (≈ 6.07 µM) in data set [29]. In addition, the inhibition entry in [5] was “Active”. Further, the outcome in [1] was inactive. Also, the Activity result in [18] is given as “Non-toxic”.

Consider `N=C(N)NCCC[C@H](NC(=O)CNC(=O)[C@H](CCCCN)NC(=O)[C@H](CCCNC(=N)N)NC(=O)[C@H](Cc1ccccc1)NC(=O)[C@H](CCCCN)NC(=O)[C@H](Cc1c[nH]c2ccccc12)NC(=O)[C@H](CCCNC(=N)N)NC(=O)[C@H](Cc1ccccc1)NC(=O)[C@H](CCCNC(=N)N)NC(=O)[C@H](CCCNC(=N)N)NC(=O)[C@H](Cc1ccc(O)cc1)NC(=O)[C@H](CCCCN)NC(=O)[C@H](CCCCN)NC(=O)CN)C(=O)N[C@@H](Cc1ccccc1)C(=O)N[C@@H](Cc1c[nH]c2ccccc12)C(=O)N[C@@H](Cc1ccccc1)C(=O)N[C@@H](Cc1c[nH]c2ccccc12)C(=O)NCC(=O)O` (H-GKKYRRFRWKFRKGRFWFWG-OH), for which the minimum inhibitory concentration (MIC) is 4 µg/mL (≈ 1.43 µM) in data set [21]; 32 µg/mL (≈ 11.5 µM) in data set [22]; 16 µg/mL (≈ 5.73 µM) in data set [23]; 16 µg/mL (≈ 5.73 µM) in data set [24]; 16 µg/mL (≈ 5.73 µM) in [25]; 16 µg/mL (≈ 5.73 µM) in [26]. In addition, the values for the minimum inhibitory concentration (MIC) in data set [27], in data set [28] and in data set [29] were 16 µg/mL (≈ 5.73 µM), 64 µg/mL (≈ 22.9 µM) and 16 µg/mL (≈ 5.73 µM), respectively. Further, in data set [5], the inhibition result is “Active”. Further, in [1], the outcome was inactive.

On to `N=C(N)NCCC[C@H](NC(=O)[C@H](Cc1ccc(O)cc1)NC(=O)[C@H](CCCCN)NC(=O)[C@H](CCCCN)NC(=O)[C@H](CS)NC(=O)CN)C(=O)N[C@@H](CCCNC(=N)N)C(=O)N[C@@H](Cc1ccccc1)C(=O)N[C@@H](CCCNC(=N)N)C(=O)N[C@@H](Cc1c[nH]c2ccccc12)C(=O)N[C@@H](CCCCN)C(=O)N[C@@H](Cc1ccccc1)C(=O)N[C@@H](CCCCN)C(=O)NCC(=O)N[C@@H](CCCCN)C(=O)N[C@@H](Cc1ccccc1)C(=O)N[C@@H](Cc1c[nH]c2ccccc12)C(=O)N[C@@H](Cc1ccccc1)C(=O)N[C@@H](Cc1c[nH]c2ccccc12)C(=O)N[C@@H](CS)C(=O)NCC(=O)O` (H-GCKKYRRFRWKFKGKFWFWCG-OH), for which the minimal inhibitory concentration (MIC) in [21] came out at 32 µg/mL (≈ 11.4 µM); in data set [22] it was 256 µg/mL (≈ 90.9 µM); in data set [23] it was 128 µg/mL (≈ 45.5 µM); in data set [24], 128 µg/mL (≈ 45.5 µM); in data set [25] it was 128 µg/mL (≈ 45.5 µM); in data set [26], 128 µg/mL (≈ 45.5 µM). Moreover, the MIC in [27] worked out at 1020 µg/mL (≈ 364 µM); in data set [28] it was 512 µg/mL (≈ 182 µM); in [29] it was 64 µg/mL (≈ 22.7 µM). In data set [5], the inhibition result was “Active”. Besides, the outcome in data set [1] was Active.
